US6331642A, “Vitamin D3 analogs” (Hoffmann-La Roche Inc., priority 2000, dated 2001)
Like-named read-outs stand apart in the source and are kept apart here.

Tests used:
[1] = Serum calcium levels in ovariectomized rats; assay type: in vivo, adult female rats; details: ovx rats, Ovx/Veh. 10.41
Procedure: Three month old adult female rats were subjected to bilateral ovariectomy or sham surgery. […] Dose volume was calculated weekly using the group average body weight. Dosing started 17 days post surgery and continued for 19 days. On the 20th day animals were euthanized by carbon dioxide inhalation and left femurs excised.
Blood (1.5 ml) was collected from each animal by orbital puncture under ether anesthesia on day 7 and day 18 of dosing. Blood was collected into serum separator tubes, centrifuged at 2000 rpm for 15 min. and then serum aliquoted for calcium determinations. Serum calcium was determined by colorimetric assay.
For a verification of the effect of ovariectomy on bone calcium, the sham and ovx vehicle groups were compared using student's t-test. The ovx groups were compared by one-way analysis of variance (ANOVA), followed by Fisher's LSD to compare each treatment group to vehicle when the overall effect was statistically significant.

[2] = tested on: telomerase; assay: Telomerase activity (TRAP assay) in HL-60 cells; assay type: cell-based; details: 4 days
Procedure: Telomerase Activity. To detect the relative telomerase activity, telomeric repeat amplification protocol (TRAP) assays were performed. For human telomerase reverse transcriptase (hTERT), total RNAs were isolated from HL-cells which were treated with either 1,25(OH)2 D3 or 1,25(OH)2 -16-ene-5,6-trans-D3 (10^- 9 10^-8, and 10^-7 M) for 4 days with a monophasic solution of phenol and guanidine isothiocyanate. RT-PCR was performed with 1 μg of total RNA and random hexamer primers. cDNA was amplified using primers specific for the hTERT gene or the GAPDH gene, which was used as a control. The primers used for hTERT were: 5'-[…]-3' (sense) (SEQ ID NO: 1), and 5'-GGATGAAGCGGAGTCTGGA-3'-(antisense) (SEQ ID NO: 2). The thermal cycles were 94° C. for 90 seconds, followed by 33 cycles of 95° C. for 20 seconds, 68° C. for 40 seconds, and 72° C. for 30 seconds. Primers for the GAPDH gene were: 5'-CCATGGAGAAGGCTGGGG-3' (sense) (SEQ ID NO: 3), and 5'-[…]-3' (antisense) (SEQ ID NO: 4). Conditions for GAPDH amplifications were: 94° C. for 2 minutes, 26 cycles of 94° C. for 30 seconds, 62° C. for 40 seconds, 72° C. for 60 seconds, followed by 72° C. for 4 minutes. […]
Telomerase Activity. The effect of 1,25(OH)2 -16-ene-5,6-trans-D3and 1,25(OH)2 D3 (10^-9 -10^-7 M, 4 days) on telomerase activity was evaluated using the TRAP assay.

[3] = tested on: p27^kip1; assay: Western blot analysis, p27^kip1 in HL-60 cells; assay type: cell-based
Procedure: Western Blot Analysis. Cells were washed twice with PBS, suspended in Lysis buffer (50 mM Tris Ph 8.0, 150 mM NaCl, 0.1% SDS, 0.5% sodium deoxycholate, 1% NP40, 100 μg/ml phenylmethylsulfonyl fluoride, 2 μg/ml aprotinin, 1 μg/ml pepstatin and 10 μg/ml leupeptin), and placed on ice for 30 minutes. After centrifugation at 15,000 g for 20 minutes at 4° C., the supernatant was collected. Protein concentrations were quantitated. […] Blots were developed.
The dose-dependent effect of the vitamin D3 compounds on expression of p27^kip1 HL-60 cells was examined.

[4] = tested on: seminal vesicles; assay: Antiandrogenic activity in castrated testosterone stimulated hamsters, seminal vesicles; assay type: in vivo, male Syrian hamsters
Procedure: 1,25(OH)2 -16-ene-5,6-trans D3 was evaluated for antiandrogenic activity in castrated, testosterone stimulated male Syrian hamsters.
[…] Both compounds were administered in a vehicle of 0.2 ml sesame oil each. Necropsy was performed on day 15. The prostate and seminal vesicles were removed, blotted and weighed. Data were analyzed for statistical significance using the Student's t-test and are expressed as percent inhibition of stimulated response.

[5] = tested on: hTERT mRNA; assay: hTERT mRNA expression (RT-PCR) in HL-60 cells; assay type: cell-based, human; details: for IC (almost complete): Homo sapiens, read-out: concentration giving almost complete inhibition of hTERT mRNA expression
Procedure: Telomerase Activity. To detect the relative telomerase activity, telomeric repeat amplification protocol (TRAP) assays were performed. For human telomerase reverse transcriptase (hTERT), total RNAs were isolated from HL-cells which were treated with either 1,25(OH)2 D3 or 1,25(OH)2 -16-ene-5,6-trans-D3 (10^- 9 10^-8, and 10^-7 M) for 4 days with a monophasic solution of phenol and guanidine isothiocyanate. RT-PCR was performed with 1 μg of total RNA and random hexamer primers. cDNA was amplified using primers specific for the hTERT gene or the GAPDH gene, which was used as a control. The primers used for hTERT were: 5'-[…]-3' (sense) (SEQ ID NO: 1), and 5'-GGATGAAGCGGAGTCTGGA-3'-(antisense) (SEQ ID NO: 2). The thermal cycles were 94° C. for 90 seconds, followed by 33 cycles of 95° C. for 20 seconds, 68° C. for 40 seconds, and 72° C. for 30 seconds. Primers for the GAPDH gene were: 5'-CCATGGAGAAGGCTGGGG-3' (sense) (SEQ ID NO: 3), and 5'-[…]-3' (antisense) (SEQ ID NO: 4). Conditions for GAPDH amplifications were: 94° C. for 2 minutes, 26 cycles of 94° C. for 30 seconds, 62° C. for 40 seconds, 72° C. for 60 seconds, followed by 72° C. for 4 minutes. PCR products were electrophoresed on 1% agarose gel and stained with ethidium bromide.
The effects of vitamin D3 analogs on hTERT expression in HL-60 cells was evaluated using RT-PCR.

[6] = Serum calcium levels in vivo, mice; parameters: species or system male Balb/c mice; details: for survival: 3 weeks of study
Procedure: Serum Calcium Levels in vivo. Twenty-eight male Balb/c mice at 8 to 9 weeks of age were maintained in pathogen-free conditions and fed a standard laboratory diet. Four mice per group were injected intraperitoneally every other day (except Saturday and Sunday) with either vitamin D3 compound or diluant (100 μl/mouse) for 3 weeks. Doses of 1,25(OH)2-16-ene-5,6-trans-D3 were: 0.1, 0.5, 1.0, and 2.0 μg. Doses of 1,25(OH)2 D3 were 0.1 μg/mouse. Control mice were injected with 100 μl of PBS. Serum calcium values were measured every week by the quantitative, colorimetric detection assay.
Serum Calcium Levels in vivo. Because hypercalcemia is a major toxicity of vitamin D3 compounds, the calcemic effects of 1,25(OH)2 D3 were compared with 1,25(OH)2 -16-ene-5,6-trans-D3.

[7] = tested on: left femur (distal half); assay: Total femoral bone calcium in ovariectomized rats; assay type: in vivo, adult female rats; details: ovx rats, 19 days, text: calcium in mg/distal half femur, Ovx/Veh. 10.58
Procedure: Three month old adult female rats were subjected to bilateral ovariectomy or sham surgery. After a week of acclimatization the animals were weight grouped and treated by oral gavage at 1 mg/kg of specified concentration. Dose volume was calculated weekly using the group average body weight. Dosing started 17 days post surgery and continued for 19 days. On the 20th day animals were euthanized by carbon dioxide inhalation and left femurs excised.
At necropsy the left femurs from all groups were excised and soft tissue removed. The bones were measured and cut in half at mid-diaphysis; then the distal portion was cut in half longitudinally after removal of the epiphysis. The bone marrow was flushed out and the calcium was extracted by immersion in 5% TCA. The calcium content of TCA extracts was determined by using quantitative, colorimetric determination of calcium. The data were expressed as mean total bone calcium in mg/distal half femur (DHF)±serum.

[8] = tested on: p21^waf1; assay: Western blot analysis, p21^waf1 in MCF-7 cells; assay type: cell-based; details: Homo sapiens, read-out: increase in expression of p21^waf1
Procedure: Western Blot Analysis. Cells were washed twice with PBS, suspended in Lysis buffer (50 mM Tris Ph 8.0, 150 mM NaCl, 0.1% SDS, 0.5% sodium deoxycholate, 1% NP40, 100 μg/ml phenylmethylsulfonyl fluoride, 2 μg/ml aprotinin, 1 μg/ml pepstatin and 10 μg/ml leupeptin), and placed on ice for 30 minutes. After centrifugation at 15,000 g for 20 minutes at 4° C., the supernatant was collected. Protein concentrations were quantitated. Whole lysates (15 μg) were resolved by 15% sodium dodecyl sulphate polyacrylamide gel, were transferred to an immobilon polyvinylidene difuride membrane and were probed with anti-p27^kip1 rabbit polyclonal antibody and anti-Actin murine monoclonal antibody. Blots were developed.
Western Blot Analysis. The cyclin dependent kinase inhibitors known as p21^waf1 and p27^kip1 are able to inhibit the activity of cyclin kinase and thus slow the progression for the cells through the cell cycle. […] Exposure for one day to 1,25(OH)2 -16-ene-5,6-trans-D3 (10^-7 M) increased expression of p21^waf1 and p27^kip1 by about 3.2-3.5 fold, whereas culture with 1,25(OH)2 D3 (10^-7 M) increased expression of p21^waf1 and p27^kip1 about 1.6-1.8 fold. […] 1,25(OH)2 D3 (10^-7 M, 3 days) increased expression of p21^waf1 and p27^kip1 by 4.8 fold and 3.3 fold, respectively.

C=C1/C(=C\C=C2/CCC[C@]3(C)[C@@H]([C@H](C)CCCC(C)(C)O)CC[C@@H]23)C[C@@H](O)C[C@@H]1O [1,25(OH)2 D3, reference compound]
Serum Calcium ([1]; dose printed 0500 μg/kg oral): 11.74 mg/dL
telomerase activity ([2]; 10^-7 M): markedly decreased
expression of p27^kip1 [3]: up-regulated
levels of p27^kip1 ([3]; 10^-8-10^-7 M): increased prominently
androgen-induced hypertrophy of the seminal vesicles ([4]; non-toxic doses (1 μg)): inactive
expression of hTERT mRNA ([5]; HL-60 cells, 4 days): inhibited the expression of hTERT mRNA in a dose-dependent manner
IC (almost complete) ([5]; HL-60, 96 h): 0.1 µM
hypercalcemia ([6]; 0.1 μg/mouse i.p. every other day, 3 weeks): all hypercalcemic
serum calcium level ([6]; 0.1 μg/mouse i.p. every other day, 3 weeks, normal 8.5-10.5 mg/dl): approximately 12 mg/dl
survival [6]: All mice survived
Femur CA/100 g BW ([7]; 0.500 μg/kg oral): 11.91 /100 g BW
fold induction at 0.1 µM ([8]; MCF7, 24 h): 1.6 to 1.8
fold induction at 0.1 µM ([8]; MCF7, 72 h): 4.8

C=C1/C(=C/C=C2\CCC[C@]3(C)C([C@H](C)CCCC(C)(C)O)=CC[C@@H]23)C[C@@H](O)C[C@@H]1O [1,25(OH)2-16-ene-5,6-trans-D3, 1,25-Dihydroxy-16-ene-5,6-trans-cholecalciferol]
Serum Calcium ([1]; 2.000 μg/kg oral): 9.98 mg/dL
telomerase activity ([2]; 10^-9 M): markedly decreased
expression of p27^kip1 [3]: up-regulated
expression of p27^kip1 ([3]; 4 days, 10^-9 M): markedly increased
androgen-induced hypertrophy of the seminal vesicles ([4]; castrated, testosterone stimulated hamsters): substantially suppressed
Seminal vesicles Inhib. (percent inhibition of stimulated response) ([4]; testosterone + 0.1 μg compound s.c. daily, 14 days): 48%
Seminal vesicles weight ([4]; testosterone + 0.1 μg compound s.c. daily, 14 days, mg ± SEM): 71 ± 1 mg
expression of hTERT mRNA ([5]; HL-60 cells, 4 days): inhibited the expression of hTERT mRNA in a dose-dependent manner
IC (almost complete) ([5]; 96 h, HL-60 cells, 4 days): 0.01 µM
serum calcium level ([6]; 0.1-2.0 μg/mouse i.p. every other day, 3 weeks, control mice 8-9 mg/dl): 8 to 10 mg/dL
serum calcium level compared with control mice ([6]; 0.1-2.0 μg/mouse i.p., 3 weeks): almost the same calcium level
survival [6]: All mice survived
Femur CA/100 g BW ([7]; 2.000 μg/kg oral): 11.49 /100 g BW
fold induction at 0.1 µM ([8]; MCF7, 24 h): 3.2 to 3.5
fold induction at 0.1 µM ([8]; MCF7, 72 h): 2.8
